Data as given in BindingDB's records for doi:10.1021/jm00117a021 (Syntex Research, 1988).

Columns and labels:
[1] = molecular target: Adenosylhomocysteinase (Oryctolagus cuniculus); assay: Inhibition of S-adenosyl-homocysteine (AdoHcy)hydrolase from rabbit erythrocytes
[2] = molecular target: Adenosylhomocysteinase (Oryctolagus cuniculus); assay: as above; remark: listed apart in the source

Row | IC50 [1] [µM] | IC50 [2] [µM] | Compound
1 | 28 |  | Nc1ncnc2c1ncn2C1C(O)C(O)C(CO)C1O (configuration not stated)
2 |  | 0.04 | Nc1ncnc2c1ncn2[C@@H](C=O)O[C@@H](C=O)CO [Adenosine dialdehyde]
